The values that follow come from patent US20230265116A1, “DEGRADATION OF (EGFR) BY CONJUGATION OF EGFR INHIBITORS WITH E3 LIGASE LIGAND AND METHODS OF USE” (BEIGENE, LTD., priority 2020, published 2023).

The test system of test [1] is EGFR Del19/T790M/C797S (BaF3-DTC cells). As to the kind of experiment: EGFR degradation HTRF assay, BaF3-DTC cells. It is filed as cell-based. Particulars: 16h treatment; for DTC Dmax (%): maximum percentage of degradation; for DC50: read-out: DTC DC50. In short, it runs like this:
(§1)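 EGFR remaining after a 16 h, 37 °C exposure (8 doses, 5-fold steps from 10 uM final, 0.2% DMSO) was quantified by HTRF antibodies in cell lysate. Percent inhibition relative to DMSO control was fitted by four-parameter logistic to give DC50; Dmax denotes maximal degradation.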

Test [2] has as its target T1, EGFR L858R/T790M/C797S (BaF3-LTC cells) (Homo sapiens, UniProt P00533, C797S/L858R/T790M).
T1 construct: expressed in transfected cells; host or cells: BaF3
In words: EGFR degradation HTRF assay, BaF3-LTC cells. In kind it is cell-based. Particulars: BaF3-LTC, 16h treatment; for Dmax: maximum percentage of degradation, read-out: LTC Dmax (%); for DC50: read-out: LTC DC50. In a few lines:
as §1

T1 sequence (P00533 25-1210 T790M/C797S/L858R): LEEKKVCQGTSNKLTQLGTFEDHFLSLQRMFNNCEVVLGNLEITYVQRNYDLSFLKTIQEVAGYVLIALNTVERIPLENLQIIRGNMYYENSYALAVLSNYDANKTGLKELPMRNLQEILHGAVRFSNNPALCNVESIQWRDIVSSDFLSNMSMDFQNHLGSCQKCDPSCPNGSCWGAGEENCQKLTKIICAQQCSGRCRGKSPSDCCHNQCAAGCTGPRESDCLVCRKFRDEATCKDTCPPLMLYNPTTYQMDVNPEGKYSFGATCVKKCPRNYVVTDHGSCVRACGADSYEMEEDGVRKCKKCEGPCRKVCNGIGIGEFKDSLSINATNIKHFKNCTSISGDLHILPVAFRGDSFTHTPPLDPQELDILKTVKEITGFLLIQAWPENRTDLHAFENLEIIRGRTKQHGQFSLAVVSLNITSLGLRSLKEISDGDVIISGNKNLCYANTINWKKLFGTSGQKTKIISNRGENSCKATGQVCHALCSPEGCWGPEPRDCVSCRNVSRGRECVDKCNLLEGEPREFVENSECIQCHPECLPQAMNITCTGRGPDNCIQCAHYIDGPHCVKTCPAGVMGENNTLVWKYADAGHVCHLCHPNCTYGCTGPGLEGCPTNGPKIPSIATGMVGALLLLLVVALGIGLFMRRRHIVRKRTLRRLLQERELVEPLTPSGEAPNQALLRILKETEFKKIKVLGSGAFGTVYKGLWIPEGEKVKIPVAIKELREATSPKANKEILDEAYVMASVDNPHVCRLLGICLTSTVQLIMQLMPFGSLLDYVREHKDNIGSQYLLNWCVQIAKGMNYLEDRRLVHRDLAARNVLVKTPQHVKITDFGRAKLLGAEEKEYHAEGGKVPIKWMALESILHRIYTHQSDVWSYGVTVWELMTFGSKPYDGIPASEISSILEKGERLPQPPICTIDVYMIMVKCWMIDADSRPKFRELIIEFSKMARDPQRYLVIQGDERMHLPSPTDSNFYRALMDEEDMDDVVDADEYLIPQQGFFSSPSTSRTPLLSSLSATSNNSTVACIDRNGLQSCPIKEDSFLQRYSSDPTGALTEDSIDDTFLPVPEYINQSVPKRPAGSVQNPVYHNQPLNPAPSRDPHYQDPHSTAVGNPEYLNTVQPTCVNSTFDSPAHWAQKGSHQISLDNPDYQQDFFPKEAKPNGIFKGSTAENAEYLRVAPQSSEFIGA

Take `CCc1cc(Nc2ncc(Br)c(Nc3ccc4nccnc4c3P(C)(C)=O)n2)c(OC)cc1N1CCC(N2CCN(CCc3ccc(C4CCC(=O)NC4=O)c(F)c3)[C@H](COC)C2)CC1` (stereo partly drawn) [Example 292, 3-(4-(2-((S)-4-(1-(4-((5-bromo-4-((5-(dimethylphosphoryl)quinoxalin-6-yl)amino)pyrimidin-2-yl)amino)-2-ethyl-5-methoxyphenyl)piperidin-4-yl)-2-(methoxymethyl)piperazin-1-yl)ethyl)-2-fluorophenyl)piperidine-2,6-dione]: in test [1], the “DTC Dmax (%)” value is 87.11% and the DC50 was found to be 0.0151 µM. In addition, in test [2], the Dmax turned out to be 84.2% and the half-maximal degradation concentration (DC50) was 0.0323 µM.

Take `CCc1cc(Nc2ncc(Br)c(Nc3ccc4nccnc4c3P(C)(C)=O)n2)c(OC)cc1N1CCC(N2CCN(CCc3ccc(C4CCC(=O)NC4=O)c(F)c3)[C@@H](COC)C2)CC1` (stereo partly drawn) [Example 293, 3-(4-(2-((R)-4-(1-(4-((5-bromo-4-((5-(dimethylphosphoryl)quinoxalin-6-yl)amino)pyrimidin-2-yl)amino)-2-ethyl-5-methoxyphenyl)piperidin-4-yl)-2-(methoxymethyl)piperazin-1-yl)ethyl)-2-fluorophenyl)piperidine-2,6-dione]: in test [1], the “DTC Dmax (%)” value came to 83.85% and the DC50 came out at 0.0174 µM. In test [2], the Dmax came to 85.3% and the DC50 was 0.0437 µM.

As to `CCc1cc(Nc2ncc(Br)c(Nc3ccc4nccnc4c3P(C)(C)=O)n2)c(OC)cc1N1CCC(N2CCN(C(=O)[C@H]3C[C@H](Nc4ccc(C5CCC(=O)NC5=O)cc4)C3)CC2)CC1` (some centres unmarked) [Example 298, 3-(4-(((1r,3r)-3-(4-(1-(4-((5-bromo-4-((5-(dimethylphosphoryl)quinoxalin-6-yl)amino)pyrimidin-2-yl)amino)-2-ethyl-5-methoxyphenyl)piperidin-4-yl)piperazine-1-carbonyl)cyclobutyl)amino)phenyl)piperidine-2,6-dione], in test [1], the “DTC Dmax (%)” value stood at 86.58% and the DC50 turned out to be 0.00438 µM. For the same molecule, in test [2], the Dmax is 80.8% and the DC50 came out at 0.0167 µM.

Consider `CCc1cc(Nc2ncc(Br)c(Nc3ccc4nccnc4c3P(C)(C)=O)n2)c(OC)cc1N1CCC(N2CCN(C3CCN(c4ccc(C5CCC(=O)NC5=O)cc4)CC3)CC2)CC1` (centres unmarked) [Example 299, 3-(4-(4-(4-(1-(4-((5-bromo-4-((5-(dimethylphosphoryl)quinoxalin-6-yl)amino)pyrimidin-2-yl)amino)-2-ethyl-5-methoxyphenyl)piperidin-4-yl)piperazin-1-yl)piperidin-1-yl)phenyl)piperidine-2,6-dione], for which, in test [1], the “DTC Dmax (%)” value is listed as 80.72% and the DC50 is 0.00488 µM. Besides, in test [2], the Dmax was 85% and the DC50 was 0.0364 µM.

As to `CCc1cc(Nc2ncc(Br)c(Nc3ccc4nccnc4c3P(C)(C)=O)n2)c(OC)cc1N1CCC(N2CCN(C3CN(c4cc(F)c(C5CCC(=O)NC5=O)c(F)c4)C3)CC2)CC1` (centres unmarked) [Example 302, 3-(4-(3-(4-(1-(4-((5-bromo-4-((5-(dimethylphosphoryl)quinoxalin-6-yl)amino)pyrimidin-2-yl)amino)-2-ethyl-5-methoxyphenyl)piperidin-4-yl)piperazin-1-yl)azetidin-1-yl)-2,6-difluorophenyl)piperidine-2,6-dione], in test [1], the “DTC Dmax (%)” value is recorded as 88.36% and the DC50 is 0.00602 µM. Further, in test [2], the Dmax stood at 83.8% and the DC50 worked out at 0.017 µM.

`CCc1cc(Nc2ncc(Br)c(Nc3ccc4nccnc4c3P(C)(C)=O)n2)c(OC)cc1N1CCC(N2CCN(CC3CCN(c4cc(F)c(C5CCC(=O)NC5=O)c(F)c4)CC3)CC2)CC1` (centres unmarked) [Example 303, 3-(4-(4-((4-(1-(4-((5-bromo-4-((5-(dimethylphosphoryl)quinoxalin-6-yl)amino)pyrimidin-2-yl)amino)-2-ethyl-5-methoxyphenyl)piperidin-4-yl)piperazin-1-yl)methyl)piperidin-1-yl)-2,6-difluorophenyl)piperidine-2,6-dione]: in test [1], the “DTC Dmax (%)” value turned out to be 90.93% and the DC50 was 0.0106 µM. Besides, in test [2], the Dmax is 86.7% and the DC50 amounted to 0.0412 µM.

Consider `CCc1cc(Nc2ncc(Br)c(Nc3ccc4nccnc4c3P(C)(C)=O)n2)c(OC)cc1N1CCC(N2CCN(C(=O)C3CN(c4ccc(C5CCC(=O)NC5=O)c(C#N)c4)C3)CC2)CC1` (centres unmarked) [Example 306, 5-(3-(4-(1-(4-((5-bromo-4-((5-(dimethylphosphoryl)quinoxalin-6-yl)amino)pyrimidin-2-yl)amino)-2-ethyl-5-methoxyphenyl)piperidin-4-yl)piperazine-1-carbonyl)azetidin-1-yl)-2-(2,6-dioxopiperidin-3-yl)benzonitrile], for which, in test [1], the “DTC Dmax (%)” value is 73.14% and the DC50 came out at 0.00957 µM. In test [2], the Dmax was found to be 85.8% and the DC50 amounted to 0.0171 µM.

Consider `CCc1cc(Nc2ncc(Br)c(Nc3ccc4nccnc4c3P(C)(C)=O)n2)c(OC)cc1N1CCC(N2CCN(C[C@H]3C[C@H](N(C)c4cccc(C5CCC(=O)NC5=O)c4)C3)CC2)CC1` (some centres unmarked) [Example 307, 3-(3-(((1r,3r)-3-((4-(1-(4-((5-bromo-4-((5-(dimethylphosphoryl)quinoxalin-6-yl)amino)pyrimidin-2-yl)amino)-2-ethyl-5-methoxyphenyl)piperidin-4-yl)piperazin-1-yl)methyl)cyclobutyl)(methyl)amino)phenyl)piperidine-2,6-dione], for which, in test [1], the “DTC Dmax (%)” value is 73.68% and the DC50 was 0.0433 µM. In addition, in test [2], the Dmax was found to be 87.4% and the DC50 was 0.0771 µM.

For the molecule `CCc1cc(Nc2ncc(Br)c(Nc3ccc4nccnc4c3P(C)(C)=O)n2)c(OC)cc1N1CCC(N2CCN(C(=O)C3CCN(c4ccc5nn(C6CCC(=O)NC6=O)cc5c4)CC3)CC2)CC1` (centres unmarked) [Example 308, 3-(5-(4-(4-(1-(4-((5-bromo-4-((5-(dimethylphosphoryl)quinoxalin-6-yl)amino)pyrimidin-2-yl)amino)-2-ethyl-5-methoxyphenyl)piperidin-4-yl)piperazine-1-carbonyl)piperidin-1-yl)-2H-indazol-2-yl)piperidine-2,6-dione], in test [1], the “DTC Dmax (%)” value amounted to 93.79% and the DC50 stood at 0.00501 µM. Also, in test [2], the Dmax was 91.8% and the DC50 worked out at 0.0156 µM.

For `CCc1cc(Nc2ncc(Br)c(Nc3ccc4nccnc4c3P(C)(C)=O)n2)c(OC)cc1N1CCC(N2CCN(CCc3ccc4nn(C5CCC(=O)NC5=O)cc4c3)CC2)CC1` (centres unmarked) [Example 309, 3-(5-(2-(4-(1-(4-((5-bromo-4-((5-(dimethylphosphoryl)quinoxalin-6-yl)amino)pyrimidin-2-yl)amino)-2-ethyl-5-methoxyphenyl)piperidin-4-yl)piperazin-1-yl)ethyl)-2H-indazol-2-yl)piperidine-2,6-dione], in test [1], the “DTC Dmax (%)” value turned out to be 92.99% and the DC50 worked out at 0.00589 µM. Besides, in test [2], the Dmax was found to be 87.2% and the DC50 worked out at 0.0321 µM.

`CCc1cc(Nc2ncc(Br)c(Nc3ccc4nccnc4c3P(C)(C)=O)n2)c(OC)cc1N1CCC(N2CCN(C3CC4(CCN(c5ccc(C6CCC(=O)NC6=O)cc5)CC4)C3)CC2)CC1` (centres unmarked) [Example 311, 3-(4-(2-(4-(1-(4-((5-bromo-4-((5-(dimethylphosphoryl)quinoxalin-6-yl)amino)pyrimidin-2-yl)amino)-2-ethyl-5-methoxyphenyl)piperidin-4-yl)piperazin-1-yl)-7-azaspiro[3.5]nonan-7-yl)phenyl)piperidine-2,6-dione]: in test [1], the “DTC Dmax (%)” value came to 77.19% and the DC50 was 0.0318 µM. In test [2], the maximal degradation (Dmax) was found to be 76.3% and the DC50 amounted to 0.0782 µM.
